Data taken from PMC11272978, “Exploring the central region of amylin and its analogs aggregation: the influence of metal ions and residue substitutions” (Frontiers in Chemistry, 2024).
“Also recorded” adds a separate entry of the source. No end group written: not given here.

Tests used:
[1] = Atomic force microscopy (AFM) of fibrils; format: physicochemical
Experimental: AFM imaging was conducted in a 256-scanning line at a 1 Hz scanning rate by using Bruker’s Nano Dimension Icon (Bruker Nano Inc., Germany). In this procedure, 200–300 μM hIAPP-F and Pramlintide-M were incubated with and without selected metal ions at 25°C for 24 h. All the samples were dissolved in 50 mM phosphate buffer (pH 7.4). The height of peptide aggregates was obtained from its section tool through Nano Scope Analysis 1.5, and the line position with average effects in the images was selected, except peptides alone in fibril form.

[2] = test system: HeLa cells; test: CCK-8 cytotoxicity assay; format: cell-based, human
Experimental: The cytotoxicity of the different peptides (rIAPP-F, hIAPP-F, Pramlintide-F, hIAPP-M, rIAPP-M, Pramlintide-M, and hIAPP) was tested using CCK-8 assay according to the manufacturer’s protocol. Briefly, cervical carcinoma cells (HeLa) were seeded into 96 well plates 8 × 10^3 cells/well in 100 µL DMEM culture medium with 10% FBS and 1% Penicillin-Streptomycin and incubated in a 5% CO2 incubator at 37°C overnight. After that, the cells were incubated with the different peptides prepared in deionized water at concentrations (200, 400, 600, and 800 μg/mL) for 24 h. In addition, the cytotoxicity of hIAPP-F and Pramlintide-M prepared in 0.5 mg/mL Cu(NO3)2 and ZnCl2 solutions at the same concentrations (200, 400, 600, and 800 μg/mL) was also tested. Cells without any treatment were used as a control, and all the conditions were done in triplicates. After 24 h, the media was discarded from the plate, and cells were washed with PBS. Then, 10 µL of CCK-8 and 90 µL of fresh DMEM media were added to each well and incubated for 4 h. The absorbance was measured at OD = […] using a microplate spectrophotometer (BioRad-xMark Microplate Absorbance Spectrophotometer). The ratio of the absorbance at 570/605 was calculated, and the average absorbance value of wells without cells was considered as blank and subtracted from all wells to cancel the background noise. The cells without any treatment were used as a control, and their mean value was considered 100% viable. The other treated cells’ viability was calculated using the formula: Cells viability % = (Corrected Mean Absorbance of treated cells)/(Corrected Mean Absorbance of control) ×100.

[3] = Thioflavin-T (ThT) aggregation assay; format: physicochemical; conditions: 40 μM peptide, 20 μM ThT, 50 mM phosphate buffer pH 7.4, 25°C; for ThT fluorescence intensity (aggregation), peptide alone: ex 485/20, em 528/20 nm, read each 5 min; for ThT fluorescence intensity (aggregation) with Cu(II): Cu(II) (Cu(NO3)2) 1:1; for ThT fluorescence intensity (aggregation) with Zn(II): Zn(II) (ZnCl2) 1:1
Experimental: (§1) Preparation of IAPP fragments solutions and thioflavin-T aggregation assays were performed as described earlier ([Alghrably et al., 2020]). In brief, IAPP fragments were dissolved in 50 mM phosphate buffer to concentrations of 1 mM. Stock solutions were diluted to the desired concentrations, and samples were used fresh each time. It is important to mention that due to the observation of turbidity after dissolving hIAPP-F and Pramlintide-M, both peptides were sonicated for 25 min. All of the aggregation reactions were conducted at 25°C with 40 μM IAPP fragments/mutants (final concentration) in 50 mM phosphate buffer (pH 7.4), and 20 μM thioflavin T in a final volume of 200 μL in each of the 96-well flat-bottom black plate (Corning 3915). We tested the aggregation of each IAPP fragment/mutants alone and with the addition of two metal ions Cu(II) and Zn(II). The metal ions were added to the IAPP fragments in 1:1 ratio. The plate was sealed with transparent film (Duck Brand Crystal Clear Tape, Avon, OH). Thioflavin T fluorescence emission at 528/20 nm (excitation at 485/20) was monitored on a Cytation 5 Multi-Mode Microplate. The measurements were collected by top reading each 5 min after a 3 s shake with an extended gain.

[4] = 1D 1H NMR signal intensity over time (aggregation); format: physicochemical; conditions: 310 K, over 44 hours; for NMR signal intensity over time (signal loss = aggregation), peptide alone: D2O with 20 mM phosphate buffer pH 7.4, 1.5 mM peptide (100 μM for hIAPP-F and Pramlintide-M)
Experimental: All peptides (except hIAPP-F and Pramlintide-M) were dissolved in 99.8% deuterium oxide containing 20 mM of phosphate buffer (pH 7.4). All samples contained 1.5 mM peptide concentration in 600 μL of sample volume except for hIAPP-F and Pramlintide-M, for which the final concentration was 100 μM (both peptides have a high tendency to aggregate at room temperature). The samples’ pH was manually adjusted to 7.4 with 0.1 M NaOD stock solution in 100% D2O. These samples were used for the ^1H and ^13C resonances assignment based on 2D spectra: ^1H-^13C HSQC ([Bodenhausen and Ruben, 1980]) tuned for the aliphatic region, HSQC-TOCSY ([Koz´min´ski and Koz´min´ski, 1999]), ^1H-^1H TOCSY ([Braunschweiler and Ernst, 1983]) mixing time 20 ms and 80 ms, ^1H-^1H ROESY ([Davis, 1985]) mixing time 300 ms and 500 ms. During the hIAPP-F and Pramlintide-M sample preparation, a temperature of 90°C was used to dissolve the peptides. After that, both samples were sonicated during the cooling down process to obtain a homogeneous solution. Spectra were measured immediately after sample preparation. The samples with the addition of metal ions were prepared with the same method as the samples of high tendency aggregation peptides hIAPP-F and Pramlintide-M.
All experiments were performed at a temperature of 310 K. The NMR spectra were acquired on spectrometers of 950, 800, and 700 MHz Bruker Avance NEO equipped with cryogenic TCI probes: • rIAPP-F, hIAPP-F, Pramlintide-M: 700 MHz, ^1H frequency = 700.21 MHz, ^13C frequency = 176.07 MHz • rIAPP-M: 800 MHz, ^1H frequency = 800.18 MHz, ^13C frequency = 201.21 MHz • Pramlintide-F, hIAPP-M: 950 MHz, ^1H frequency = 950.30 MHz, ^13C frequency = 238.96 MHz

[5] = Turbidity on dissolving the peptide; format: physicochemical; conditions: dissolved in 50 mM phosphate buffer to 1 mM; observation; peptides then sonicated for 25 min
Experimental: as §1

[6] = 200 µM peptide alone, phosphate buffer pH 7.4, 25°C, 24 h, cross-section profile
[7] = 200 µM peptide, phosphate buffer pH 7.4, 25°C, 24 h
[8] = peptide:Cu(II) 1:1, 200 µM, phosphate buffer pH 7.4, 24 h

| NMR signal intensity over time (signal loss = aggregation), peptide alone [4] | Compound | fibril morphology (AFM), peptide alone [1, 7] | ThT fluorescence intensity (aggregation), peptide alone [3] | ThT fluorescence intensity (aggregation) with Cu(II) [3] | ThT fluorescence intensity (aggregation) with Zn(II) [3] | also measured |
| --- | --- | --- | --- | --- | --- | --- |
| – | CC[C@H](C)[C@H](NC(=O)[C@H](C)NC(=O)CNC(=O)[C@H](Cc1ccccc1)NC(=O)[C@H](CC(N)=O)NC(=O)[C@H](CC(N)=O)NC(=O)[C@H](CO)NC(=O)[C@H](CO)NC(=O)[C@H](Cc1c[nH]cn1)NC(=O)[C@@H](NC(=O)[C@H](CC(C)C)NC(=O)[C@H](Cc1ccccc1)NC(=O)[C@H](CC(N)=O)NC(=O)[C@H](C)NC(=O)[C@H](CC(C)C)NC(=O)[C@H](CCCNC(=N)N)NC(=O)[C@H](CCC(N)=O)NC(=O)[C@@H](NC(=O)[C@H](C)NC(=O)[C@@H]1CSSC[C@H](NC(=O)[C@@H](N)CCCCN)C(=O)N[C@@H](CC(N)=O)C(=O)N[C@@H]([C@@H](C)O)C(=O)N[C@@H](C)C(=O)N[C@@H]([C@@H](C)O)C(=O)N1)[C@@H](C)O)C(C)C)C(=O)N[C@@H](CC(C)C)C(=O)N[C@@H](CO)C(=O)N[C@@H](CO)C(=O)N[C@H](C(=O)N[C@@H](CC(N)=O)C(=O)N[C@H](C(=O)NCC(=O)N[C@@H](CO)C(=O)N[C@@H](CC(N)=O)C(=O)N[C@H](C(=O)N[C@@H](Cc1ccc(O)cc1)C(N)=O)[C@@H](C)O)C(C)C)[C@@H](C)O [hIAPP] | relatively short worm-like fibrils | – | – | – | diameter of helical fibrils (AFM) [1, 6]: 5–6 nm; diameter of ribbon fibrils (AFM) [1, 6]: around 2 nm; fibril length (AFM), some fibrils, peptide alone ([1]; 200 µM peptide alone, phosphate buffer pH 7.4, 24 h, fibrils vary in length): > 2 µm; average fibril length (AFM) with Cu(II) [1, 8]: less than 2 µm; fibril diameter (AFM) with Cu(II) [1, 8]: 2–3 nm; fibril morphology (AFM) with Cu(II) [1, 8]: unique looping structure; effect on cell viability, peptide alone ([2]; HeLa cells, 200, 400, 600 and 800 μg/mL, 24 h, CCK-8, n = 3): highest level of toxicity; cell viability at 400 μg/mL ([2]; HeLa cells, 24 h, CCK-8, peptide in deionized water, triplicates): 0% |
| no signal loss was observed over time | SNNLGPVLPP [rIAPP-F, fragment derived from rat amylin, central region] | – | did not show any increase in the fluorescence intensity | neither metal ions Cu(II) nor Zn(II) have any influence on the aggregation rate | neither metal ions Cu(II) nor Zn(II) have any influence on the aggregation rate | – |
| no signal loss was observed over time | SNNLGPILPP [rIAPP-M, custom-designed mutated fragment of rat amylin] | – | no increase in fluorescence intensity; also recorded: did not show any increase in the fluorescence intensity | neither metal ions Cu(II) nor Zn(II) have any influence on the aggregation rate | neither metal ions Cu(II) nor Zn(II) have any influence on the aggregation rate | – |
| no signal loss was observed over time | SNNFGPILPP [Pramlintide-F, fragment derived from pramlintide, central region] | – | no increase in fluorescence intensity; also recorded: did not show any increase in the fluorescence intensity | neither metal ions Cu(II) nor Zn(II) have any influence on the aggregation rate | neither metal ions Cu(II) nor Zn(II) have any influence on the aggregation rate | – |
| no signal loss was observed over time | SNNFGAILPP [hIAPP-M, custom-designed mutated fragment of human amylin, last two serins mutated with prolines] | – | no increase in fluorescence intensity; also recorded: did not show any increase in the fluorescence intensity | neither metal ions Cu(II) nor Zn(II) have any influence on the aggregation rate | neither metal ions Cu(II) nor Zn(II) have any influence on the aggregation rate | – |

| Compound | NMR signal intensity over time (signal loss = aggregation), peptide alone [4] | fibril morphology (AFM), peptide alone [1, 7] | ThT fluorescence intensity (aggregation), peptide alone [3] | ThT fluorescence intensity (aggregation) with Cu(II) [3] | ThT fluorescence intensity (aggregation) with Zn(II) [3] | also measured |
| --- | --- | --- | --- | --- | --- | --- |
| SNNFGAILSS [hIAPP-F] | decreased over time | twisted fibril | – | completely inhibited the aggregation | increased the fluorescence intensity | time to reach saturation phase (ThT), peptide alone [3]: ~2.5 h; time to reach saturation phase (ThT) with Zn(II) ([3]; Zn(II) 1:1): ~2.5 h; fibril diameter (AFM), peptide alone ([1]; 200 µM peptide, phosphate buffer pH 7.4, 25°C, 24 h, profile analysis): approximately 6 nm; fibril diameter (AFM) with Zn(II) ([1]; peptide:Zn 1:1, 200 µM, phosphate buffer pH 7.4, 24 h): same diameter as the matured helical-structured fibrils; NMR signal intensity deterioration with Zn(II) ([4]; 100 μM peptide, pH 7.4, with Zn(II)): occurred faster in the presence of Zn(II); cell viability at 800 μg/mL ([2]; HeLa cells, 24 h, CCK-8, peptide in deionized water, highest concentration tested, triplicates): 60%; cell viability, peptide-Cu(II) complex ([2]; HeLa cells, peptide 200-800 μg/mL prepared in 0.5 mg/mL Cu(NO3)2, 24 h, CCK-8, n = 3): high cell viability; cell viability / proliferation, peptide with Zn(II) ([2]; HeLa cells, peptide 200-800 μg/mL prepared in 0.5 mg/mL ZnCl2, 24 h, CCK-8, n = 3): high cell proliferation rate; turbidity after dissolving [5]: turbidity |
